± gives the standard deviation of the averaged measurements.
Legend:
Test in all cases: relative viability vs DMSO control (72 h) (fraction); higher = more viable cells
RD-ES = test system: RD-ES
Method in brief: (§1)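 After seeding at densities set for 80–90% confluence in 384-well plates, sarcoma cell lines waited 24 h before 2.5 µl of serially diluted compound was added. Source plates held 10 mM down to 0.0002 mM. Plates were incubated 72 h at 37 °C with 5% CO2, with 0.1% DMSO vehicle and a 5 µM positive control, and relative viability was taken from ATPLite as percent growth averaged over up to triplicate wells, with 1 set as full and 0 as none.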

SYO-1 = test system: SYO-1
Method in brief: as §1

SK-ES-1 = test system: SK-ES-1
Method in brief: as §1

G401 = test system: G401
Method in brief: as §1

VA-ES-BJ = test system: VA-ES-BJ
Method in brief: as §1

KHOS-240S = test system: KHOS-240S
Method in brief: as §1

HT1080 = test system: HT1080
Method in brief: as §1

RD = test system: RD
Method in brief: as §1

SW982 = test system: SW982
Method in brief: as §1

SW1353 = test system: SW1353
Method in brief: as §1

SK-LMS-1 = test system: SK-LMS-1
Method in brief: as §1

MES-SA = test system: MES-SA
Method in brief: as §1

COc1cc(CCc2cc(NC(=O)c3ccc(N4CC(C)NC(C)C4)cc3)n[nH]2)cc(OC)c1 (configuration not stated) [AZD-4547]
Details | relative viability
G401, 0.00017 µM | 1 ± 0.053
G401, 0.00051 µM | 0.999 ± 0.042
G401, 0.00152 µM | 0.964 ± 0.06
G401, 0.00457 µM | 0.976 ± 0.016
G401, 0.01372 µM | 0.9 ± 0.052
G401, 0.04115 µM | 0.845 ± 0.047
G401, 0.1235 µM | 0.706 ± 0.033
G401, 0.3704 µM | 0.589 ± 0.0072
G401, 1.111 µM | 0.486 ± 0.061
G401, 3.333 µM | 0.356 ± 0.059
G401, 10 µM | 0.136 ± 0.013
HT1080, 0.00017 µM | 1.085 ± 0.008
HT1080, 0.00051 µM | 1.1 ± 0.025
HT1080, 0.00152 µM | 1.08 ± 0.045
HT1080, 0.00457 µM | 1.07 ± 0.066
HT1080, 0.01372 µM | 1.06 ± 0.04
HT1080, 0.04115 µM | 1.01 ± 0.036
HT1080, 0.1235 µM | 1.04 ± 0.047
HT1080, 0.3704 µM | 1.08 ± 0.051
HT1080, 1.111 µM | 1.04 ± 0.044
HT1080, 3.333 µM | 1.04 ± 0.03
HT1080, 10 µM | 0.859 ± 0.026
KHOS-240S, 0.00017 µM | 1.04 ± 0.027
KHOS-240S, 0.00051 µM | 1.07 ± 0.048
KHOS-240S, 0.00152 µM | 1.036 ± 0.0091
KHOS-240S, 0.00457 µM | 1.02 ± 0.03
KHOS-240S, 0.01372 µM | 1.02 ± 0.021
KHOS-240S, 0.04115 µM | 0.9306 ± 0.0084
KHOS-240S, 0.1235 µM | 0.841 ± 0.017
KHOS-240S, 0.3704 µM | 0.784 ± 0.0084
KHOS-240S, 1.111 µM | 0.72 ± 0.04
KHOS-240S, 3.333 µM | 0.619 ± 0.05
KHOS-240S, 10 µM | 0.288 ± 0.02
MES-SA, 0.00017 µM | 0.886 ± 0.052
MES-SA, 0.00051 µM | 0.888 ± 0.042
MES-SA, 0.00152 µM | 0.92 ± 0.05
MES-SA, 0.00457 µM | 0.921 ± 0.015
MES-SA, 0.01372 µM | 0.894 ± 0.027
MES-SA, 0.04115 µM | 0.89 ± 0.045
MES-SA, 0.1235 µM | 0.789 ± 0.015
MES-SA, 0.3704 µM | 0.708 ± 0.012
MES-SA, 1.111 µM | 0.655 ± 0.017
MES-SA, 3.333 µM | 0.554 ± 0.02
MES-SA, 10 µM | 0.266 ± 0.01
RD, 0.00017 µM | 1.03 ± 0.03
RD, 0.00051 µM | 1.08 ± 0.022
RD, 0.00152 µM | 1.07 ± 0.028
RD, 0.00457 µM | 1.07 ± 0.022
RD, 0.01372 µM | 1.08 ± 0.033
RD, 0.04115 µM | 1.1 ± 0.025
RD, 0.1235 µM | 1.063 ± 0.0057
RD, 0.3704 µM | 1.08 ± 0.022
RD, 1.111 µM | 1.06 ± 0.068
RD, 3.333 µM | 0.858 ± 0.011
RD, 10 µM | 0.419 ± 0.018
RD-ES, 0.00017 µM | 0.946 ± 0.023
RD-ES, 0.00051 µM | 0.96 ± 0.02
RD-ES, 0.00152 µM | 0.959 ± 0.016
RD-ES, 0.00457 µM | 0.961 ± 0.03
RD-ES, 0.01372 µM | 0.95 ± 0.023
RD-ES, 0.04115 µM | 0.9048 ± 0.0084
RD-ES, 0.1235 µM | 0.89 ± 0.03
RD-ES, 0.3704 µM | 0.871 ± 0.043
RD-ES, 1.111 µM | 0.808 ± 0.026
RD-ES, 3.333 µM | 0.6084 ± 0.002
RD-ES, 10 µM | 0.173 ± 0.0089
SK-ES-1, 0.00017 µM | 1.02 ± 0.033
SK-ES-1, 0.00051 µM | 1.02 ± 0.039
SK-ES-1, 0.00152 µM | 1.01 ± 0.067
SK-ES-1, 0.00457 µM | 1 ± 0.056
SK-ES-1, 0.01372 µM | 1.05 ± 0.1
SK-ES-1, 0.04115 µM | 0.947 ± 0.083
SK-ES-1, 0.1235 µM | 0.928 ± 0.088
SK-ES-1, 0.3704 µM | 0.878 ± 0.017
SK-ES-1, 1.111 µM | 0.821 ± 0.04
SK-ES-1, 3.333 µM | 0.483 ± 0.024
SK-ES-1, 10 µM | 0.141 ± 0.004
SK-LMS-1, 0.00017 µM | 0.9811 ± 0.0063
SK-LMS-1, 0.00051 µM | 0.953 ± 0.04
SK-LMS-1, 0.00152 µM | 0.944 ± 0.013
SK-LMS-1, 0.00457 µM | 0.993 ± 0.042
SK-LMS-1, 0.01372 µM | 0.938 ± 0.044
SK-LMS-1, 0.04115 µM | 0.991 ± 0.017
SK-LMS-1, 0.1235 µM | 0.954 ± 0.021
SK-LMS-1, 0.3704 µM | 0.9652 ± 0.0074
SK-LMS-1, 1.111 µM | 0.986 ± 0.023
SK-LMS-1, 3.333 µM | 0.965 ± 0.046
SK-LMS-1, 10 µM | 0.645 ± 0.023
SW982, 0.00017 µM | 1 ± 0.045
SW982, 0.00051 µM | 1 ± 0.033
SW982, 0.00152 µM | 1.02 ± 0.014
SW982, 0.00457 µM | 1.018 ± 0.0076
SW982, 0.01372 µM | 0.982 ± 0.047
SW982, 0.04115 µM | 1 ± 0.013
SW982, 0.1235 µM | 1 ± 0.025
SW982, 0.3704 µM | 0.995 ± 0.037
SW982, 1.111 µM | 0.922 ± 0.071
SW982, 3.333 µM | 0.591 ± 0.021
SW982, 10 µM | 0.206 ± 0.015
SW1353, 0.00017 µM | 1.06 ± 0.011
SW1353, 0.00051 µM | 1.03 ± 0.021
SW1353, 0.00152 µM | 1.03 ± 0.021
SW1353, 0.00457 µM | 0.981 ± 0.056
SW1353, 0.01372 µM | 0.938 ± 0.032
SW1353, 0.04115 µM | 0.886 ± 0.043
SW1353, 0.1235 µM | 0.893 ± 0.043
SW1353, 0.3704 µM | 0.849 ± 0.067
SW1353, 1.111 µM | 0.821 ± 0.026
SW1353, 3.333 µM | 0.829 ± 0.051
SW1353, 10 µM | 0.595 ± 0.027
SYO-1, 0.00017 µM | 0.945 ± 0.058
SYO-1, 0.00051 µM | 0.864 ± 0.034
SYO-1, 0.00152 µM | 0.836 ± 0.07
SYO-1, 0.00457 µM | 0.763 ± 0.069
SYO-1, 0.01372 µM | 0.672 ± 0.11
SYO-1, 0.04115 µM | 0.637 ± 0.11
SYO-1, 0.1235 µM | 0.588 ± 0.1
SYO-1, 0.3704 µM | 0.559 ± 0.087
SYO-1, 1.111 µM | 0.519 ± 0.07
SYO-1, 3.333 µM | 0.408 ± 0.037
SYO-1, 10 µM | 0.224 ± 0.03
VA-ES-BJ, 0.00017 µM | 1.05 ± 0.044
VA-ES-BJ, 0.00051 µM | 1.01 ± 0.03
VA-ES-BJ, 0.00152 µM | 1.03 ± 0.048
VA-ES-BJ, 0.00457 µM | 1.02 ± 0.013
VA-ES-BJ, 0.01372 µM | 1.01 ± 0.044
VA-ES-BJ, 0.04115 µM | 0.975 ± 0.028
VA-ES-BJ, 0.1235 µM | 0.983 ± 0.039
VA-ES-BJ, 0.3704 µM | 1.02 ± 0.036
VA-ES-BJ, 1.111 µM | 1.07 ± 0.069
VA-ES-BJ, 3.333 µM | 0.987 ± 0.017
VA-ES-BJ, 10 µM | 0.681 ± 0.032

Reference: the supplement of paper PMC10883282
